Results published in patent publication US20240417405A1, “Substituted Spiro Derivatives” (Janssen Pharmaceutica NV, priority 2021, published 2024).

Tests used:
[1] = molecular target: T1, menin/MLL (terbium chelate-labeled menin, FITC-MBM1 peptide) (Homo sapiens, UniProt O00255, T541A); assay: Menin/MLL homogenous time-resolved fluorescence (HTRF) assay; type: binding; conditions: 30 min incubation
T1 construct: Menin (a.a 1-610-6xhis tag)
T1 sequence (O00255 with tags, fused parts or gaps T541A): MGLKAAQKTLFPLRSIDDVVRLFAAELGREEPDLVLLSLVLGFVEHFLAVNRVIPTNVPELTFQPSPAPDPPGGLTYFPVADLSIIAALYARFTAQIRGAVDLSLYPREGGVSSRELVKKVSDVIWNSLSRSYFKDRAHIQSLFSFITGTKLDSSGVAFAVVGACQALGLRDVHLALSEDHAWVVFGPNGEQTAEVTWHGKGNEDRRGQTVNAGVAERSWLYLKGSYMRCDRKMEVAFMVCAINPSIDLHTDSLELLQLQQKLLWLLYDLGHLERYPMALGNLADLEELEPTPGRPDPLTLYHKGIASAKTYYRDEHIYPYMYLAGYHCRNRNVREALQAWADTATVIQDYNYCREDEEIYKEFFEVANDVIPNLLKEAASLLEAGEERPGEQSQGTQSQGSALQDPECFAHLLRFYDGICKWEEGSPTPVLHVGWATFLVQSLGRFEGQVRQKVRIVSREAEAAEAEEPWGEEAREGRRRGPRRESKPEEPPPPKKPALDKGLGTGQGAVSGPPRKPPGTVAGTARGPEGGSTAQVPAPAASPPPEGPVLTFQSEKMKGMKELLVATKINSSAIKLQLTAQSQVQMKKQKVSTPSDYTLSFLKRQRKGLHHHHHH
Outline: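 Percent inhibition, calculated from the 520/490 nm HTRF ratio against high and low controls, was fitted for IC50 with a 0.1 nM detection limit. Reactions held 200 pM Tb-menin and 75 nM FITC-MBM1 in pH 7.5 Tris buffer with 0.5% DMSO.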

[2] = tested on: MOLM14 cells; assay: Proliferation assay, spheroid-like growth, MOLM14 (MLL-AF9 rearranged); type: cell-based, human; conditions: Homo sapiens, MOLM-14, 192 h, 8 days, confluence as measure of spheroid size, read-out: spheroid assay_OneTime MOLM14 IC50
Outline: (§1)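 Seed cells at linear-growth densities in low-attachment wells; add test compound at several concentrations, normalized to 0.3% DMSO; incubate 8 days at 37 °C; image spheroids and measure confluence; calculate absolute IC50 against DMSO and reference-compound controls.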

[3] = tested on: KO-52 cells; assay: Proliferation assay, spheroid-like growth, KO-52 (MLL wildtype control cell line); type: cell-based, human; conditions: Homo sapiens, 192 h, KO-52 control cells, 8 days, confluence as measure of spheroid size; read-out: spheroid assay_OneTime KO-52 IC50
Outline: as §1

| Compound | IC50 [1] | IC50 [2] | IC50 [3] |
| --- | --- | --- | --- |
| CC(C)[C@H]([C@H]1C[C@@H](N2CC[C@]3(CCN(C)C3=O)C2)C1)N1CC2(CCN(c3ncnnc3Oc3ccc(F)cc3-c3cncnc3C3CC3)C2)C1 (single isomer, unassigned) [Compound 67] | 0.1 nM | 7 nM | > 15000 nM |
| CC(C)[C@H]([C@H]1C[C@@H](N2CC[C@@H](C(C)(C)O)C2)C1)N1CC2(CCN(c3ncnnc3Oc3ccc(F)cc3-c3cncnc3C3CC3)C2)C1 (single isomer, unassigned) [Compound 70] | 0.1 nM | 4 nM | 5150 nM |
| CC(C)[C@H]([C@H]1C[C@H](N2CC[C@@H](C(C)(C)O)C2)C1)N1CC2(CCN(c3ncnnc3Oc3ccc(F)cc3-c3cncnc3C3CC3)C2)C1 (single isomer, unassigned) [Compound 71] | 0.1 nM | 60 nM | 9730 nM |
| CC(C)[C@H]([C@H]1C[C@@H](N2CCC[C@H](O)C2)C1)N1CC2(CCN(c3ncnnc3Oc3ccc(F)cc3-c3cccnc3C3CC3)C2)C1 (single isomer, unassigned) [Compound 78] | 2.9 nM | 630 nM | 4640 nM |
| CC(=O)N1CCN([C@H]2C[C@@H]([C@@H](C(C)C)N3CC4(CCN(c5ncnnc5Oc5ccc(F)cc5-c5ncc(C#N)cc5C5CC5)C4)C3)C2)CC1 (single isomer, unassigned) [Compound 79] | 0.3 nM | 240 nM | 3660 nM |
| CC(=O)N1CCN([C@H]2C[C@@H]([C@@H](C(C)C)N3CC4(CCN(c5ncnnc5Oc5ccc(F)cc5-c5cnncc5C5CC5)C4)C3)C2)CC1 (single isomer, unassigned) [Compound 80] | 43.2 nM | > 940 nM | > 15000 nM |
| CC(C)[C@H]([C@H]1C[C@H](N2CC3(COC3)C2)C1)N1CC2(CCN(c3ncnnc3Oc3ccc(F)cc3-c3cnncc3C3CC3)C2)C1 (single isomer, unassigned) [Compound 83] | 1.6 nM | 980 nM | > 15000 nM |
| CC(C)[C@H]([C@H]1C[C@H](N2CC3(CCO3)C2)C1)N1CC2(CCN(c3ncnnc3Oc3ccc(F)cc3-c3cnncc3C3CC3)C2)C1 (single isomer, unassigned) [Compound 84a] | 21.5 nM | 850 nM | > 15000 nM |
| CC(C)[C@@H]([C@H]1C[C@@H](N2CCC(O)CC2)C1)N1CC2(CCN(c3ncnnc3Oc3ccc(F)cc3-c3cncnc3C3CC3)C2)C1 (single isomer, unassigned) [Compound 88] | 2.3 nM | 410 nM | > 15000 nM |
| CC(=O)N1CCN([C@H]2C[C@@H]([C@H](C(C)C)N3CC4(CCN(c5ncnnc5Oc5ccc(F)cc5-c5cccnc5C5CC5)C4)C3)C2)CC1 (single isomer, unassigned) [Compound 89] | 0.2 nM | 20 nM | 6180 nM |
| CC(C)[C@@H]([C@H]1C[C@H](N(C)C)C1)N1CC2(CCN(c3ncnnc3Oc3ccc(F)cc3-c3cccnc3C3CC3)C2)C1 (single isomer, unassigned) [Compound 91] | 0.1 nM | 26 nM | 1030 nM |
| CC(C)[C@H]([C@H]1C[C@H](N2CC3(COC3)C2)C1)N1CC2(CCN(c3ncnnc3Oc3ccc(F)cc3-c3ncc(C#N)cc3C3CC3)C2)C1 (single isomer, unassigned) [Compound 95] | 0.1 nM | 210 nM | 11400 nM |
| CC(=O)N1CCN([C@H]2C[C@@H]([C@H](C(C)C)N3CC4(CCN(c5ncnnc5Oc5ccc(F)cc5-c5ncc(C#N)cc5C5CC5)C4)C3)C2)CC1 (single isomer, unassigned) [Compound 96] | 153 nM | > 940 nM | > 15000 nM |

Now from value to molecule, other results behind:

| IC50 [1] | IC50 [2] | Compound | IC50 [3] |
| --- | --- | --- | --- |
| 0.1 nM | 5 nM | CC(C)[C@H]([C@H]1C[C@@H](N2CC[C@H](C(C)(C)O)C2)C1)N1CC2(CCN(c3ncnnc3Oc3ccc(F)cc3-c3cncnc3C3CC3)C2)C1 (single isomer, unassigned) [Compound 68] | 4410 nM |
| 0.1 nM | 39 nM | CC(C)[C@H]([C@H]1C[C@H](N2CC[C@H](C(C)(C)O)C2)C1)N1CC2(CCN(c3ncnnc3Oc3ccc(F)cc3-c3cncnc3C3CC3)C2)C1 (single isomer, unassigned) [Compound 69] | 14000 nM |
| 2 nM | 280 nM | CO[C@H]1CCN([C@H]2C[C@@H]([C@@H](C(C)C)N3CC4(CCN(c5ncnnc5Oc5ccc(F)cc5-c5cnncc5C5CC5)C4)C3)C2)C1 (single isomer, unassigned) [Compound 81] | > 15000 nM |
| 0.4 nM | 300 nM | CC(C)[C@H]([C@H]1C[C@@H](N2CC3(COC3)C2)C1)N1CC2(CCN(c3ncnnc3Oc3ccc(F)cc3-c3cnncc3C3CC3)C2)C1 (single isomer, unassigned) [Compound 82] | > 15000 nM |
| 5.5 nM | 220 nM | CC(C)[C@H]([C@H]1C[C@@H](N2CC3(CCO3)C2)C1)N1CC2(CCN(c3ncnnc3Oc3ccc(F)cc3-c3cnncc3C3CC3)C2)C1 (single isomer, unassigned) [Compound 84] | > 15000 nM |
| 25.4 nM | 1560 nM | CC(C)[C@@H]([C@H]1C[C@@H](N2CCC(O)C(F)C2)C1)N1CC2(CCN(c3ncnnc3Oc3ccc(F)cc3-c3cncnc3C3CC3)C2)C1 (single isomer, unassigned) [Compound 85] | > 15000 nM |
| 17.2 nM | 650 nM | CC(C)[C@@H]([C@H]1C[C@H](N2CCC(O)C(F)C2)C1)N1CC2(CCN(c3ncnnc3Oc3ccc(F)cc3-c3cncnc3C3CC3)C2)C1 (single isomer, unassigned) [Compound 86] | > 15000 nM |
| 1.9 nM | 820 nM | CC1CN([C@H]2C[C@@H]([C@H](C(C)C)N3CC4(CCN(c5ncnnc5Oc5ccc(F)cc5-c5cncnc5C5CC5)C4)C3)C2)CCC1O (single isomer, unassigned) [Compound 87] | > 15000 nM |
| 0.1 nM | 2 nM | CC(C)[C@@H]([C@H]1C[C@@H](N(C)C)C1)N1CC2(CCN(c3ncnnc3Oc3ccc(F)cc3-c3cccnc3C3CC3)C2)C1 (single isomer, unassigned) [Compound 90] | 540 nM |
| 0.1 nM | 7 nM | CC(C)[C@@H]([C@H]1C[C@@H](N2CCN(C(=O)N(C)C)CC2)C1)N1CC2(CCN(c3ncnnc3Oc3ccc(F)cc3-c3cccnc3C3CC3)C2)C1 (single isomer, unassigned) [Compound 92] | 780 nM |
| 0.1 nM | 3 nM | CC(C)[C@@H]([C@H]1C[C@@H](N2CCC[C@@H](O)C2)C1)N1CC2(CCN(c3ncnnc3Oc3ccc(F)cc3-c3cccnc3C3CC3)C2)C1 (single isomer, unassigned) [Compound 93] | 490 nM |
| 0.1 nM | 25 nM | CC(C)[C@H]([C@H]1C[C@@H](N2CC3(COC3)C2)C1)N1CC2(CCN(c3ncnnc3Oc3ccc(F)cc3-c3ncc(C#N)cc3C3CC3)C2)C1 (single isomer, unassigned) [Compound 94] | 3390 nM |
| 0.1 nM | 3 nM | CC(C)[C@@H]([C@H]1C[C@@H](N2C[C@H]3COC[C@H]3C2)C1)N1CC2(CCN(c3ncnnc3Oc3ccc(F)cc3-c3ncncc3C3CC3)C2)C1 (single isomer, unassigned) [Compound 97] | 310 nM |
| 0.4 nM | 58 nM | CC(C)[C@@H]([C@H]1C[C@@H](N2CCC(S(C)(=O)=O)CC2)C1)N1CC2(CCN(c3ncnnc3Oc3ccc(F)cc3-c3ncncc3C3CC3)C2)C1 (single isomer, unassigned) [Compound 98] | 4350 nM |
| 0.1 nM | 2 nM | CC(C)[C@@H]([C@H]1C[C@@H](N2CC[C@](C)(O)C2)C1)N1CC2(CCN(c3ncnnc3Oc3ccc(F)cc3-c3ncncc3C3CC3)C2)C1 (single isomer, unassigned) [Compound 99] | 2000 nM |
